In patent US12115178B2, “Acylated active agents and methods of their use for the treatment of autoimmune disorders” (Flagship Pioneering Innovations V, Inc., priority 2018, dated 2024):

Legend:
Type in all cases: in vitro ADME
[1] = Assay 1. Stability in Simulated Gastric Fluid (SGF); conditions: SGF pH 1.6 with pepsin, 1 μM, 37° C.
Outline: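 Compound at 1 μM final (from 1 mM DMSO stock) incubated at 37° C in SGF: NaCl medium at pH 1.6 with FaSSIF powder and 0.1 mg/mL pepsin, prepared fresh. Aliquots taken at T0 and regular intervals, quenched with equal volume acetonitrile; LC/MS gives degradation rate.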

[2] = Assay 3. In vitro Colonic Material Stability Assay; conditions: colonic material slurry, anaerobic, 1 or 10 μM
Procedure: Assay 3. In vitro Colonic Material Stability Assay. This assay was used to assess the stability of an acylated active agent in a large intestine. All experiments were performed in an anaerobic chamber containing 90% nitrogen, 5% hydrogen and 5% carbon dioxide. Colonic material was resuspended as a slurry (15% w/v final concentration) in pre-reduced, anaerobically sterilized dilution blanks (Anaerobe Systems AS-908). The colonic material was then inoculated into 96 well plates containing YCFAC media (Anaerobe Systems AS-680) or other suitable media (6.7 μL slurry into 1 mL total media). Compounds or groups of compounds were added to each individual well to reach a final analyte concentration of 1 or 10 μM, and the material was mixed by pipetting. Sample was removed after set timepoints (0, 120, 240, 480, 1440, 2880 minutes after initiation of the assay), quenched with acetonitrile containing internal standard, and analyzed by LC/MS.

[3] = Assay 2. Stability in Simulated Intestinal Fluid (SIF); conditions: SIF pH 6.7 with pancreatin, 1 μM, 37° C.
Outline: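 Compounds at 1 µM (from 1 mM DMSO stock) were incubated at 37 °C with agitation in simulated intestinal fluid: FaSSIF in pH 6.7 phosphate buffer with pancreatin. Aliquots taken from T0 onward were quenched with acetonitrile and analyzed by LC/MS for degradation rate.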

SMILES	Assay 1 (SGF) (% Remaining @ 1 hour) [1]	Assay 3 (% Remaining at 24 h) [2]	Assay 2 (SIF) (% @ Remaining 4 hours) [3]
CCCC(=O)O[C@@H]1[C@@H](OC(=O)CCC)[C@@H](Oc2ccc(N)cc2C(=O)O)OC[C@H]1OC(=O)CCC [Compound 18, 5-amino-2-[(2R,3R,4S,5R)-3,4,5-tri(butanoyloxy)tetrahydropyran-2-yl]oxy-benzoic acid]	C (>75% of the tested compound remaining)	C (>75% of the tested compound remaining)	
CCCC(=O)O[C@@H]1[C@@H](OC(=O)CCC)[C@H](Oc2ccc(N)cc2C(=O)O)OC[C@H]1OC(=O)CCC [Compound 19, 5-amino-2-[(2S,3R,4S,5R)-3,4,5-tri(butanoyloxy)tetrahydropyran-2-yl]oxy-benzoic acid]	C (>75% of the tested compound remaining)	B (25-75% of the tested compound remaining)	B (25-75% of the tested compound remaining)
CCCC(=O)O[C@H]1[C@@H](Oc2ccc(N)cc2C(=O)O)OC[C@@H](OC(=O)CCC)[C@H]1OC(=O)CCC [Compound 21, 5-amino-2-(((2R,3R,4R,5R)-3,4,5-tris(butyryloxy)tetrahydro-2H-pyran-2-yl)oxy)benzoic acid]	C (>75% of the tested compound remaining)	B (25-75% of the tested compound remaining)	C (>75% of the tested compound remaining)
CCCC(=O)O[C@@H]1[C@H](OC(=O)CCC)[C@H](C)OC(Oc2ccccc2C(=O)O)[C@H]1OC(=O)CCC (stereo partly drawn) [Compound 29, 2-(((3S,4R,5R,6S)-3,4,5-tris(butyryloxy)-6-methyltetrahydro-2H-pyran-2-yl)oxy)benzoic acid]	C (>75% of the tested compound remaining)	C (>75% of the tested compound remaining)	
CCCC(=O)OC[C@H]1O[C@@H](Oc2ccc(N)cc2C(=O)O)[C@H](OC(=O)CCC)[C@@H](OC(=O)CCC)[C@@H]1OC(=O)CCC [Compound 36, 5-amino-2-(((2S,3R,4S,5R,6R)-3,4,5-tris(butyryloxy)-6-((butyryloxy)methyl)tetrahydro-2H-pyran-2-yl)oxy)benzoic acid]		C (>75% of the tested compound remaining)	C (>75% of the tested compound remaining)
CCCC(=O)O[C@@H]1[C@@H](OC(=O)CCC)[C@H](C)O[C@H](Oc2ccccc2C(=O)O)[C@@H]1OC(=O)CCC [Compound 38, 2-(((2R,3R,4R,5S,6S)-3,4,5-tris(butyryloxy)-6-methyltetrahydro-2H-pyran-2-yl)oxy)benzoic acid]		C (>75% of the tested compound remaining)	C (>75% of the tested compound remaining)
CCCC(=O)OC[C@H]1O[C@H](OC)[C@H](OC(=O)CCC)[C@@H](OC(=O)CCC)[C@H]1OC(=O)CCC [Compound 56, [(2R,3S,4S,5R,6S)-3,4,5-tris(butanoyloxy)-6-methoxyoxan-2-yl]methyl butanoate]		A (<25% of the tested compound remaining)	A (<25% of the tested compound remaining)
CCCC(=O)OC[C@H]1O[C@@H](OC)[C@H](OC(=O)CCC)[C@@H](OC(=O)CCC)[C@@H]1OC(=O)CCC [Compound 58, [(2R,3R,4S,5R,6R)-3,4,5-tris(butanoyloxy)-6-methoxyoxan-2-yl]methyl butanoate]		A (<25% of the tested compound remaining)	A (<25% of the tested compound remaining)
CCC(=O)OC[C@H]1O[C@@H](OC)[C@H](OC(=O)CC)[C@@H](OC(=O)CC)[C@@H]1OC(=O)CC [Compound 59, [(2R,3R,4S,5R,6R)-6-methoxy-3,4,5-tris(propanoyloxy)oxan-2-yl]methyl propanoate]		A (<25% of the tested compound remaining)	A (<25% of the tested compound remaining)
C[C@@H]1O[C@@H](OC(=O)CCc2c[nH]c3ccccc23)[C@@H](OC(=O)CCc2c[nH]c3ccccc23)[C@H](OC(=O)CCc2c[nH]c3ccccc23)[C@@H]1OC(=O)CCc1c[nH]c2ccccc12 [Compound 64, (2S,3S,4R,5R,6S)-3,4,5-tris({[3-(1H-indol-3-yl)propanoyl]oxy})-6-methyloxan-2-yl 3-(1H-indol-3-yl)propanoate]		A (<25% of the tested compound remaining)	A (<25% of the tested compound remaining)
CCCC(=O)O[C@@H]1[C@@H](OC(=O)CCC)[C@H](C)O[C@H](OC(=O)CCc2c[nH]c3ccccc23)[C@@H]1OC(=O)CCC [Compound 86, (2R,3R,4R,5S,6S)-4,5-bis(butanoyloxy)-2-{[3-(1H-indol-3-yl)propanoyl]oxy}-6-methyloxan-3-yl butanoate]	B (25-75% of the tested compound remaining)	A (<25% of the tested compound remaining)	
CCCC(=O)O[C@H]1[C@H](OC(=O)CCC)[C@@H](OC(=O)CCc2c[nH]c3ccccc23)O[C@@H](C)[C@H]1OC(=O)CCC [Compound 87, (2R,3S,4R,5R,6S)-4,5-bis(butanoyloxy)-2-{[3-(1H-indol-3-yl)propanoyl]oxy}-6-methyloxan-3-yl butanoate]	B (25-75% of the tested compound remaining)	A (<25% of the tested compound remaining)	
CCCC(=O)O[C@@H]1[C@@H](OC(=O)CCC)[C@H](OC)OC[C@H]1OC(=O)CCC [Compound 88, (2R,3R,4S,5R)-4,5-bis(butanoyloxy)-2-methoxyoxan-3-yl butanoate]		A (<25% of the tested compound remaining)	A (<25% of the tested compound remaining)
CCCC(=O)O[C@@H]1[C@@H](OC(=O)CCC)[C@H](OC(=O)CCc2c[nH]c3ccccc23)OC[C@H]1OC(=O)CCC [Compound 97, (2S,3R,4S,5R)-4,5-bis(butanoyloxy)-2-{[3-(1H-indol-3-yl)propanoyl]oxy}oxan-3-yl butanoate]	B (25-75% of the tested compound remaining)	A (<25% of the tested compound remaining)	
CCC(=O)OC[C@H]1O[C@H](OC(=O)/C=C/c2c[nH]c3ccccc23)[C@H](OC(=O)CC)[C@@H](OC(=O)CC)[C@@H]1OC(=O)CC [Compound 99, (2R,3R,4S,5R,6R)-3,4,5-tris(propanoyloxy)-6-[(propanoyloxy)methyl]oxan-2-yl (2E)-3-(1H-indol-3-yl)prop-2-enoate]	B (25-75% of the tested compound remaining)	A (<25% of the tested compound remaining)	
CCC(=O)O[C@@H]1[C@@H](OC(=O)CC)[C@H](OC(=O)/C=C/c2c[nH]c3ccccc23)OC[C@@H]1OC(=O)CC [Compound 100, (2S,3R,4S,5S)-3,4,5-tris(propanoyloxy)oxan-2-yl (2E)-3-(1H-indol-3-yl)prop-2-enoate]	B (25-75% of the tested compound remaining)	A (<25% of the tested compound remaining)	
O=C(CCc1c[nH]c2ccccc12)O[C@H]1OC[C@@H](OC(=O)CCc2c[nH]c3ccccc23)[C@@H](OC(=O)CCc2c[nH]c3ccccc23)[C@H]1OC(=O)CCc1c[nH]c2ccccc12 [Compound 150, (2R,3R,4R,5R)-3,4,5-tris({[3-(1H-indol-3-yl)propanoyl]oxy})oxan-2-yl 3-(1H-indol-3-yl)propanoate]		A (<25% of the tested compound remaining)	A (<25% of the tested compound remaining)
CCCC(=O)O[C@H]1[C@H](OC(=O)CCC)COC(O)[C@@H]1OC(=O)CCC (stereo partly drawn) [Compound 158, (3R,4S,5R)-4,5-bis(butanoyloxy)-2-hydroxyoxan-3-yl butanoate]		A (<25% of the tested compound remaining)	A (<25% of the tested compound remaining)
CCCC(=O)O[C@@H]1[C@@H](OC(=O)CCC)[C@H](Oc2ccc(N)cc2C(=O)O)OC[C@H]1OC(=O)CCC [Compound 183, 5-amino-2-[(2S,3R,4S,5R)-3,4,5-tri(butanoyloxy)tetrahydropyran-2-yl]oxy-benzoic acid]		B (25-75% of the tested compound remaining)	B (25-75% of the tested compound remaining)
O=C(CCc1c[nH]c2ccccc12)Oc1ccc2c(c1)oc(=O)c1cc(OC(=O)CCc3c[nH]c4ccccc34)c(OC(=O)CCc3c[nH]c4ccccc34)cc12 [Compound 208, 8,9-bis({[3-(1H-indol-3-yl)propanoyl]oxy})-6-oxo-6H-benzo[c]chromen-3-yl 3-(1H-indol-3-yl)propanoate]		B (25-75% of the tested compound remaining)	B (25-75% of the tested compound remaining)
